According to article PMC2912408 (Biochemistry, 2010):

Target: T1, rat I7 olfactory receptor (OR-I7) (Rattus norvegicus, UniProt P23270)
T1 sequence (P23270 1-327): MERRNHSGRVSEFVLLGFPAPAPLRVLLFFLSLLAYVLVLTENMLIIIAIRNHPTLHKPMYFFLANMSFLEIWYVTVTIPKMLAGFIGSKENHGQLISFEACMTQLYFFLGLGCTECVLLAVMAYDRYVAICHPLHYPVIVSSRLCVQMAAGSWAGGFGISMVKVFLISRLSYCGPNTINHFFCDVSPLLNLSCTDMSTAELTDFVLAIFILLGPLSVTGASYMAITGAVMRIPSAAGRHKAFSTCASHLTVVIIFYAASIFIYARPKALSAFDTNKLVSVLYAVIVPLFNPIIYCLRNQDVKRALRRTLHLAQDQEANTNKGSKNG
Format: cell-based

Row | SMILES | EC50
1 | CCCCCCCCC=O [nonanal] | 4.4 ± 0.4 µM
2 | CCCCCCCCCCC=O [undecanal] | 446 ± 16 µM
3 | CCCCCCCCCC=O [decanal] | 16 ± 1.7 µM
